Data reported in PubChem BioAssay AID2060622 (Molecular Pharmacology Branch, DTP, NCI, 2025).

System: 242566-281-R-J2-PDC complex spheroid viability
Experiment: Anticancer human tumor 242566-281-R-J2-PDC patient-derived pancreatic carcinoma cell line growth inhibition [CLK]
Details: for IC50: curve of first compound; for viability, T/C: stronger effect = lower value
In short: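 Multi-cell-type spheroids combined patient-derived tumor cells with HUVEC endothelial cells and human mesenchymal stem cells. Paired agents were dosed in half-log steps down from about clinical Cmax, or from 10 microM where Cmax was unknown.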

[1] = second compound 0.0316 µM, first compound 0.0316 µM
[2] = second compound 0.0316 µM, first compound 0.1 µM
[3] = second compound 0.0316 µM, first compound 0.316 µM
[4] = second compound 0.0316 µM, first compound 1 µM
[5] = second compound 0.0316 µM, first compound 3.16 µM
[6] = second compound 0.0316 µM, first compound 10 µM
[7] = second compound 0.1 µM, first compound 0.0316 µM
[8] = second compound 0.1 µM, first compound 0.1 µM
[9] = second compound 0.1 µM, first compound 0.316 µM
[10] = second compound 0.1 µM, first compound 1 µM
[11] = second compound 0.1 µM, first compound 3.16 µM
[12] = second compound 0.1 µM, first compound 10 µM
[13] = second compound 0.316 µM, first compound 0.0316 µM
[14] = second compound 0.316 µM, first compound 0.1 µM
[15] = second compound 0.316 µM, first compound 0.316 µM
[16] = second compound 0.316 µM, first compound 1 µM
[17] = second compound 0.316 µM, first compound 3.16 µM
[18] = second compound 0.316 µM, first compound 10 µM
[19] = second compound 1 µM, first compound 0.0316 µM
[20] = second compound 1 µM, first compound 0.1 µM
[21] = second compound 1 µM, first compound 0.316 µM
[22] = second compound 1 µM, first compound 1 µM
[23] = second compound 1 µM, first compound 3.16 µM
[24] = second compound 1 µM, first compound 10 µM
[25] = second compound 3.16 µM, first compound 0.0316 µM
[26] = second compound 3.16 µM, first compound 0.1 µM
[27] = second compound 3.16 µM, first compound 0.316 µM
[28] = second compound 3.16 µM, first compound 1 µM
[29] = second compound 3.16 µM, first compound 3.16 µM
[30] = second compound 3.16 µM, first compound 10 µM
[31] = second compound 10 µM, first compound 0.0316 µM
[32] = second compound 10 µM, first compound 0.1 µM
[33] = second compound 10 µM, first compound 0.316 µM
[34] = second compound 10 µM, first compound 1 µM
[35] = second compound 10 µM, first compound 3.16 µM
[36] = second compound 10 µM, first compound 10 µM
[37] = second compound 0.0316 µM, first compound 0.00316 µM
[38] = second compound 0.0316 µM, first compound 0.01 µM
[39] = second compound 0.1 µM, first compound 0.00316 µM
[40] = second compound 0.1 µM, first compound 0.01 µM
[41] = second compound 0.316 µM, first compound 0.00316 µM
[42] = second compound 0.316 µM, first compound 0.01 µM
[43] = second compound 1 µM, first compound 0.00316 µM
[44] = second compound 1 µM, first compound 0.01 µM
[45] = second compound 3.16 µM, first compound 0.00316 µM
[46] = second compound 3.16 µM, first compound 0.01 µM
[47] = second compound 10 µM, first compound 0.00316 µM
[48] = second compound 10 µM, first compound 0.01 µM
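Also: spheroids exposed to compounds for 7 days before readout.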
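For viability, T/C in this document: 100% = DMSO vehicle control wells.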

CC(CO)NC(=O)c1cc(-c2ccc(Cl)cc2)nn(-c2cnn(C)c2)c1=O (stereo not drawn) + CNC(=O)c1ccc(Nc2nc(OC3CCCC3)c3c(-c4ccc5nc(C)oc5c4)c[nH]c3n2)c(OC)c1 gave an IC50 (second compound 0.0316 µM) of over 10 µM, an IC50 (second compound 0.1 µM) of over 10 µM and an IC50 (second compound 0.316 µM) of over 10 µM. It also gave an IC50 (second compound 1 µM) of over 10 µM, an IC50 (second compound 3.16 µM) of over 10 µM and an IC50 (second compound 10 µM) of over 10 µM. It also gave a viability, T/C [1] of 112%, a viability, T/C [2] of 105% and a viability, T/C [3] of 103%. For the same compound, the viability, T/C [4] was 124%, the viability, T/C [5] was 110% and the viability, T/C [6] was 104%. It also gave a viability, T/C [7] of 105%, a viability, T/C [8] of 107% and a viability, T/C [9] of 93%. It also gave a viability, T/C [10] of 102%, a viability, T/C [11] of 103% and a viability, T/C [12] of 96.3%. It also gave a viability, T/C [13] of 96.1%, a viability, T/C [14] of 90.7% and a viability, T/C [15] of 83.1%. It also gave a viability, T/C [16] of 95.9%, a viability, T/C [17] of 101% and a viability, T/C [18] of 86%. The viability, T/C [19] was 76%, the viability, T/C [20] was 65% and the viability, T/C [21] was 75.6%. It also gave a viability, T/C [22] of 79.2%, a viability, T/C [23] of 86.2% and a viability, T/C [24] of 89.4%. For the same compound, the viability, T/C [25] was 60.1%, the viability, T/C [26] was 62.5% and the viability, T/C [27] was 59.1%. The viability, T/C [28] was 58.9%, the viability, T/C [29] was 63% and the viability, T/C [30] was 69.2%. The viability, T/C [31] was 55.6%, the viability, T/C [32] was 55.8% and the viability, T/C [33] was 54.1%. The viability, T/C [34] was 58.8%, the viability, T/C [35] was 62.7% and the viability, T/C [36] was 70.2%.

CC(Nc1ccc2c(c1)OCCn1cc(N3C(=O)OCC3C(F)F)nc1-2)C(N)=O (stereo not drawn) + CNC(=O)c1ccc(Nc2nc(OC3CCCC3)c3c(-c4ccc5nc(C)oc5c4)c[nH]c3n2)c(OC)c1 showed an IC50 (second compound 0.0316 µM) of 2.14 µM, an IC50 (second compound 0.1 µM) of 1.77 µM and an IC50 (second compound 0.316 µM) of 0.69 µM. The IC50 (second compound 1 µM) was 0.0924 µM, the IC50 (second compound 3.16 µM) was under 0.0316 µM and the IC50 (second compound 10 µM) was under 0.0316 µM. The viability, T/C [1] was 84.6%, the viability, T/C [2] was 91.4% and the viability, T/C [3] was 75.9%. The viability, T/C [4] was 62.4%, the viability, T/C [5] was 44.4% and the viability, T/C [6] was 30.6%. For the same compound, the viability, T/C [7] was 100%, the viability, T/C [8] was 96.5% and the viability, T/C [9] was 70.4%. The viability, T/C [10] was 62.2%, the viability, T/C [11] was 40.3% and the viability, T/C [12] was 28.2%. It also gave a viability, T/C [13] of 82.3%, a viability, T/C [14] of 77.6% and a viability, T/C [15] of 59.6%. For the same compound, the viability, T/C [16] was 44%, the viability, T/C [17] was 32.8% and the viability, T/C [18] was 21.6%. For the same compound, the viability, T/C [19] was 63.9%, the viability, T/C [20] was 47.2% and the viability, T/C [21] was 38.5%. It also gave a viability, T/C [22] of 26.8%, a viability, T/C [23] of 19.8% and a viability, T/C [24] of 14.2%. The viability, T/C [25] was 44.4%, the viability, T/C [26] was 32.9% and the viability, T/C [27] was 27.5%. The viability, T/C [28] was 22.8%, the viability, T/C [29] was 15.7% and the viability, T/C [30] was 11.6%. It also gave a viability, T/C [31] of 41%, a viability, T/C [32] of 33.6% and a viability, T/C [33] of 28.2%. The viability, T/C [34] was 20.3%, the viability, T/C [35] was 15.1% and the viability, T/C [36] was 10.6%.

With CCN1CCN(Cc2ccc(Nc3ncc(F)c(-c4cc(F)c5nc(C)n(C(C)C)c5c4)n3)nc2)CC1 + CNC(=O)c1ccc(Nc2nc(OC3CCCC3)c3c(-c4ccc5nc(C)oc5c4)c[nH]c3n2)c(OC)c1 the IC50 (second compound 0.0316 µM) was over 1 µM, the IC50 (second compound 0.1 µM) was over 1 µM and the IC50 (second compound 0.316 µM) was over 1 µM. For the same compound, the IC50 (second compound 1 µM) was over 1 µM, the IC50 (second compound 3.16 µM) was over 1 µM and the IC50 (second compound 10 µM) was over 1 µM. It also gave a viability, T/C [37] of 103%, a viability, T/C [38] of 106% and a viability, T/C [1] of 92%. The viability, T/C [2] was 126%, the viability, T/C [3] was 136% and the viability, T/C [4] was 154%. For the same compound, the viability, T/C [39] was 76.5%, the viability, T/C [40] was 109% and the viability, T/C [7] was 95.7%. It also gave a viability, T/C [8] of 104%, a viability, T/C [9] of 122% and a viability, T/C [10] of 153%. It also gave a viability, T/C [41] of 91.6%, a viability, T/C [42] of 98% and a viability, T/C [13] of 79.2%. It also gave a viability, T/C [14] of 117%, a viability, T/C [15] of 125% and a viability, T/C [16] of 156%. It also gave a viability, T/C [43] of 74.5%, a viability, T/C [44] of 86.8% and a viability, T/C [19] of 84.8%. The viability, T/C [20] was 96.2%, the viability, T/C [21] was 134% and the viability, T/C [22] was 142%. The viability, T/C [45] was 63.2%, the viability, T/C [46] was 61% and the viability, T/C [25] was 72.1%. The viability, T/C [26] was 85.7%, the viability, T/C [27] was 118% and the viability, T/C [28] was 123%. It also gave a viability, T/C [47] of 55.1%, a viability, T/C [48] of 59.8% and a viability, T/C [31] of 75.4%. For the same compound, the viability, T/C [32] was 80.5%, the viability, T/C [33] was 101% and the viability, T/C [34] was 124%.

Work on COc1c(OCCCN2CCOCC2)ccc2c3n(c(=NC(=O)c4cnc(N)nc4)nc12)CCN3 + CNC(=O)c1ccc(Nc2nc(OC3CCCC3)c3c(-c4ccc5nc(C)oc5c4)c[nH]c3n2)c(OC)c1 yielded an IC50 (second compound 0.0316 µM) of 0.0509 µM, an IC50 (second compound 0.1 µM) of 0.052 µM and an IC50 (second compound 0.316 µM) of 0.029 µM. For the same compound, the IC50 (second compound 1 µM) was 0.0086 µM, the IC50 (second compound 3.16 µM) was under 0.00316 µM and the IC50 (second compound 10 µM) was under 0.00316 µM. For the same compound, the viability, T/C [37] was 104%, the viability, T/C [38] was 86.1% and the viability, T/C [1] was 64.7%. For the same compound, the viability, T/C [2] was 31.1%, the viability, T/C [3] was 19.5% and the viability, T/C [4] was 14.2%. The viability, T/C [39] was 72.9%, the viability, T/C [40] was 98.3% and the viability, T/C [7] was 64.4%. For the same compound, the viability, T/C [8] was 29.2%, the viability, T/C [9] was 18.8% and the viability, T/C [10] was 14.4%. For the same compound, the viability, T/C [41] was 81.4%, the viability, T/C [42] was 70.9% and the viability, T/C [13] was 48.8%. The viability, T/C [14] was 23.9%, the viability, T/C [15] was 15.1% and the viability, T/C [16] was 10.7%. For the same compound, the viability, T/C [43] was 61.5%, the viability, T/C [44] was 47% and the viability, T/C [19] was 31.2%. The viability, T/C [20] was 14.6%, the viability, T/C [21] was 9.5% and the viability, T/C [22] was 10.9%. It also gave a viability, T/C [45] of 42.9%, a viability, T/C [46] of 33.5% and a viability, T/C [25] of 24.6%. The viability, T/C [26] was 12.5%, the viability, T/C [27] was 9.35% and the viability, T/C [28] was 10.2%. For the same compound, the viability, T/C [47] was 39.3%, the viability, T/C [48] was 32.5% and the viability, T/C [31] was 25%. The viability, T/C [32] was 11.4%, the viability, T/C [33] was 8.81% and the viability, T/C [34] was 10.2%.
